Measured values as given in patent US8455194B2, “Diagnostic methods” (Isis Innovation Limited, priority 2008, dated 2013).
Like-named read-outs stand apart in the source and are kept apart here. One block for each compound: values may come before it.

Legend:
[1] = cited from earlier work
[2] = for Cumulative percentage with myopathy / Estimated cumulative myopathy risk: 80 mg simvastatin daily; for Estimated cumulative myopathy risk: life-table analysis
Description: After randomisation, follow-up of participants was scheduled to occur at 2, 4, 8 and 12 months, and then at 6-monthly intervals. Information was sought about any possible myocardial infarction, hospitalisation for angina, stroke, vascular procedure, pulmonary embolus, cancer or other serious adverse experience. In addition, any new unexplained muscle pain or weakness was explicitly sought and recorded. A blood sample was taken at each follow-up visit for central laboratory assay of CK and ALT.
Standard 1d.f. (trend) and 2 d.f. […] Haploview v4.0 release candidate 2^25 was used to estimate linkage disequilibrium and plot association results for genotyped SNPs. Haplotype frequencies and associated risks were estimated using tools in the haplo.stats (v1.3.1) package^26 in R (v2.6.1)^27. Physical positions refer to NCBI build-36 of the human genome, and alleles are expressed in the forward strand of the reference human genome (NCBI build-36). Ensembl version 46 and NCBI dbSNP build 127 and published reports^11,28,29 were used to classify SNPs as synonymous or non-synonymous and to identify their location within introns or exons.

LDL-cholesterol = assay: Heart Protection Study (HPS): LDL-cholesterol reduction on 40 mg simvastatin daily; type: in vivo, human; settings: 4-6 weeks of 40 mg simvastatin daily
Description: (§1) Using DNA extracted from 19,856 (97%) participants, the rs4149056 and rs2306283 SNPs in SLCO1B1 were successfully genotyped in 16,664 participants classified as Caucasian. Effects of these genotypes on myopathy risk and on LDL-cholesterol reduction were then assessed.
Among 16,664 genotyped participants in HPS,^22 the rs4149056 and rs2306283 variants were not associated with significant differences in pre-treatment LDL-cholesterol levels. […] These 17,000 genotyped participants without myopathy also provide an alternative control population for the SEARCH cases, yielding an odds ratio of 4.7 (3.5-6.4) per rs4149056 C allele and a stronger p-value of 3×10^−28.

[3] = Heart Protection Study (HPS): myopathy in participants allocated 40 mg simvastatin daily; type: in vivo, human
Description: as §1

SLCO1B1 rs4149056 SNP = settings: summary estimate with interval in brackets; cited from earlier work
[4] = Asian subjects compared with a White (Caucasian) control group; cited from earlier work
[5] = among 6031 participants allocated 80 mg simvastatin daily, average follow-up about 6 years
[6] = among 6033 participants allocated 20 mg simvastatin daily
[7] = among 10,269 participants allocated 40 mg simvastatin daily, 5 years average follow-up

Compound: Cc1ccc(C)c(OCCCC(C)(C)C(=O)O)c1 [gemfibrozil]
Increase in area under the statin elimination curve (AUC) ([1]; gemfibrozil given concomitantly with several statins): 2-4 fold

Cumulative percentage with myopathy ([2]; all genotypes, Year 1): 0.91%
Cumulative percentage with myopathy ([2]; all genotypes, Year 5): 1.56%
Estimated cumulative myopathy risk ([2]; rs4149056 CC homozygotes): 18%
Estimated cumulative myopathy risk ([2]; rs4149056 CT genotype): about 3%
Estimated cumulative myopathy risk ([2]; rs4149056 TT homozygotes): 0.6%
Cumulative percentage with myopathy ([2]; rs4149056 genotype CC, Year 1): 15.25%
Cumulative percentage with myopathy ([2]; rs4149056 genotype CC, Year 5): 18.55%
Cumulative percentage with myopathy ([2]; rs4149056 genotype CT, Year 1): 1.38%
Cumulative percentage with myopathy ([2]; rs4149056 genotype CT, Year 5): 2.83%
Cumulative percentage with myopathy ([2]; rs4149056 genotype TT, Year 1): 0.34%
Cumulative percentage with myopathy ([2]; rs4149056 genotype TT, Year 5): 0.63%
Number of definite myopathy cases [2, 5]: 49
Number of incipient myopathy cases [2, 5]: 49
Number of definite myopathy cases [2, 6]: 2
Number of incipient myopathy cases [2, 6]: 6
Number of definite myopathy cases [3, 7]: 10
Number of incipient myopathy cases [3, 7]: 14
Number of myopathy cases (definite plus incipient) [3, 7]: 24
Number of definite or incipient myopathy cases while taking statin ([3]; participants taking their allocated 40 mg simvastatin daily): 23
Compound: CCC(C)(C)C(=O)O[C@H]1C[C@@H](C)C=C2C=C[C@H](C)[C@H](CC[C@@H]3C[C@@H](O)CC(=O)O3)[C@H]21 [simvastatin]
Average reduction in LDL-cholesterol (LDL-cholesterol; 16,664 genotyped participants, SE 0.12): 40.57%
Larger LDL-cholesterol reduction per rs2306283 G allele (LDL-cholesterol; both variants considered together, SE 0.18): 0.62%
Smaller LDL-cholesterol reduction per rs4149056 C allele (LDL-cholesterol; both variants considered together, SE 0.25): 1.28%

Compound: CC(C)c1nc(N(C)S(C)(=O)=O)nc(-c2ccc(F)cc2)c1/C=C/[C@@H](O)C[C@@H](O)CC(=O)O [Rosuvastatin (acid), Rosuvastatin]
Increase in AUC of rosuvastatin ([1]; rosuvastatin combined with cyclosporine): 7-11 times
% higher AUC per C allele among studies of this statin (SLCO1B1 rs4149056 SNP): 31 (15, 42) %
Elevation in median exposure of rosuvastatin [4]: ~2 fold

Compound: O=C(O)C[C@H](O)C[C@H](O)/C=C/c1c(C2CC2)nc2ccccc2c1-c1ccc(F)cc1 [Pitavastatin (acid), Pitavastatin]
% higher AUC per C allele among studies of this statin (SLCO1B1 rs4149056 SNP): 37 (10, 71) %

Compound: CCC(C)(C)C(=O)O[C@H]1C[C@@H](C)C=C2C=C[C@H](C)[C@H](CC[C@@H](O)C[C@@H](O)CC(=O)O)[C@H]21 [Simvastatin acid]
% higher AUC per C allele among studies of this statin (SLCO1B1 rs4149056 SNP): 61 (30, 100) %

Compound: CC(C)n1c(/C=C/C(O)CC(O)CC(=O)O)c(-c2ccc(F)cc2)c2ccccc21 (stereo not drawn) [Fluvastatin (acid), Fluvastatin]
% higher AUC per C allele among studies of this statin (SLCO1B1 rs4149056 SNP): 10 (−9, 34) %

Compound: CC[C@H](C)C(=O)O[C@H]1C[C@H](O)C=C2C=C[C@H](C)[C@H](CC[C@@H](O)C[C@@H](O)CC(=O)O)[C@H]21 [Pravastatin (acid), Pravastatin]
% higher AUC per C allele among studies of this statin (SLCO1B1 rs4149056 SNP): 35 (17, 56) %
